53 substances from patent US20250332249A1, “CYTOM[…] CELL EPITOPES AND USES THEREOF” (LA JOLLA INSTITUTE FOR IMMUNOLOGY, priority 2021, published 2025) can be followed below.

Where no end group is shown, it is not given here.

This experiment relates to PBMCs from HCMV seropositive subjects. In words: ex vivo IFN-γ Fluorospot assay. Type of experiment: cell-based, human. Conditions: 19 HCMV seropositive subjects, individual peptide 10 ug/ml, 20 hr; for No. of subjects responding: IFN-γ; for Magnitude of response: IFN-γ spots (FIG. 1: SFC/10^6 PBMC; no unit in table). As for the experimental part: To define the targets of HCMV-specific T cell epitopes recognized in healthy adults, the inventors screened PBMCs of 19 subjects, 10 males and 9 females, recruited from San Diego blood bank (SDBB). The HCMV seropositivity of all the subjects was confirmed by IgG ELISA (FIG. 6A). A total of 2593 HCMV peptides covering a total of 563 ORFs (1) were tested. However, as many of these predicted ORFs overlapped 100% with others, as they were internal to longer ORFs, these 563 contained 359 completely unique ORFs composed of ˜150“canonical” ORFs, and an additional ˜200 identified by ribosomal RNA profiling (1). These peptides corresponded to predicted dominant epitopes, based on a bioinformatic method that predicts promiscuous binding to HLA class II molecules (40). Each of the ORFs above was covered by multiple predicted epitopes (with a minimum of at least 2), with the exception of very small ORFs (less than 15-20 amino acid residues), in which case at least one peptide was synthetized. The 2593 peptides were arranged in 89 pools of 28-30 15-mer peptides. PBMC reactivity of each of the 89 pools was assayed directly ex vivo using an IFN-γ Fluorospot assay.
For the initial CMV ORF screen, the responses of 19 CMV-seropositive subjects were evaluated. PBMCs were stimulated with 89 pools covering 563 ORFs of HCMV. Each pool comprised of 28-30 15-mer peptides overlapping by 10 residues. PBMCs that were found reactive to a pool were further tested against individual peptides contained in the pool using IFN-γ Fluorospot assay.
PBMC were thawed, washed and counted for viability using the trypan blue exclusion method. 200,000 cells were plated in triplicates and stimulated with pools (2 ug/ml) or peptides (10 ug/ml), PHA (10 ug/ml) or medium containing equivalent amount of DMSO in 96-well plates (Immubilion-P, Millipore) previously coated with anti IFN-γ antibody (1-DIK, Mabtech, Stockholm, Sweden). After 20 hr incubation at 37° C., cells were discarded and wells were washed six times with PBS/0.05% Tween 20 using an automated plate washer and further incubated with IFN-γ antibody (7-B6-1-FS-BAM) for 2 hrs at room temperature. After incubation, wells were washed and incubated with fluorophore conjugated anti-BAM-490 antibody for 1 hr at room temperature. Finally, the plates were washed and incubated with fluorescence enhancer for 15 min, blotted dry and fluorescent spots were counted by computer assisted image analysis (IRIS Fluorospot reader, Mabtech, Sweden).
Each pool or peptide was considered positive compared to the background that had equivalent amount of DMSO based on the following criteria: (i) 20 or more spot forming cells (SFC) per 10^6 PBMC after background subtraction, (ii) the stimulation index greater than 2, and (iii) p<0.05 by student's t test or Poisson distribution test

For 142 (SGRVILWTTLRLCIL) [compound 142], the “No. of subjects responding” value was found to be 1 and the Magnitude of response is listed as 20.
The corresponding values for 220 (QIYARSLAADYLCCD) [compound 220] are 1 and 33.
On to 68 (EGIMVVYKRNIVAHT) [compound 68], for which the “No. of subjects responding” value came out at 1 and the Magnitude of response is 637.
Turning to 161 (CRVDADLGLLYAVCL) [compound 161], the “No. of subjects responding” value worked out at 1 and the Magnitude of response came out at 673.
The corresponding values for “131 (PFTVLRLSYAYRIFA; ends and bridges not checked) [compound 131]” are 1 and 33.
For 190 (VVRFALYLETLSRIV) [compound 190], the “No. of subjects responding” value came out at 2 and the Magnitude of response was 123.
The corresponding values for 150 (CEIKPYVVNPVVATA) [compound 150] are 3 and 2583.
The corresponding values for 17 (FCRRFFFPDRPDFFL) [compound 17] are 1 and 107.
As to “51 (GPGFMRYQLIVLIGQ; ends and bridges not checked) [compound 51]”, the “No. of subjects responding” value is given as 1 and the Magnitude of response was found to be 3167.
The corresponding values for “36 (SLQFIGLQRRDVVAL; ends and bridges not checked) [compound 36]” are 1 and 83.
The corresponding values for 196 (PTWSTTVNAHNSFLH) [compound 196] are 1 and 47.
Take 138 (AAITVVPVITQSRLA) [compound 138]: the “No. of subjects responding” value was found to be 3 and the Magnitude of response was determined as 450.
For the substance 103 (CRSATSLVGNTNADV) [compound 103], the “No. of subjects responding” value amounted to 1 and the Magnitude of response amounted to 30.
The corresponding values for “4 (GLWVSSYLVRRPMTI; ends and bridges not checked) [compound 4]” are 2 and 890.
In the case of 63 (AFKLDLLRMIAVSRT) [compound 63], the “No. of subjects responding” value turned out to be 2 and the Magnitude of response came to 477.
The corresponding values for 155 (MSATRHHRCCTLRFR) [compound 155] are 1 and 277.
The corresponding values for 139 (PWYPITQARTLELTP) [compound 139] are 2 and 996.
The corresponding values for 61 (ASKIKMLETRVTLAL) [compound 61] are 1 and 140.
225 (VVFMGRFSRVYAYDT) [compound 225]: the “No. of subjects responding” value was 1 and the Magnitude of response came out at 70.
Regarding 159 (SCTHPYVISLVTPLT) [compound 159], the “No. of subjects responding” value is listed as 1 and the Magnitude of response stood at 80.
Take 117 (LTWCVIADRQPRFSV) [compound 117]: the “No. of subjects responding” value turned out to be 3 and the Magnitude of response is 240.
The corresponding values for 114 (GILARNLVPMVATVQ) [compound 114] are 11 and 34633.
The corresponding values for 28 (LHCMRYLTSSLVKRY) [compound 28] are 1 and 150.
The corresponding values for 79 (AILSAIYNKPIAARF) [compound 79] are 5 and 11264.
In the case of 101 (PEYIVQIQNAFETNQ) [compound 101], the “No. of subjects responding” value came to 4 and the Magnitude of response is 527.
Turning to 104 (SSCAHTTCRSATSLV) [compound 104], the “No. of subjects responding” value came to 2 and the Magnitude of response came out at 104.
The corresponding values for 11 (PSVRMDFRARRPLRR) [compound 11] are 3 and 1740.
The corresponding values for 235 (GLVYRELHDFYGYLQ) [compound 235] are 1 and 963.
The corresponding values for 143 (VVRKYWTFTNPNRIL) [compound 143] are 3 and 16876.
Regarding 19 (KFVLQDFDVQHLRRL) [compound 19], the “No. of subjects responding” value was determined as 1 and the Magnitude of response was determined as 40.
The corresponding values for 192 (QVEILKPRGVRHRAI) [compound 192] are 9 and 3468.
The corresponding values for 105 (SWLGQMLRPVGLCTL) [compound 105] are 1 and 43.
The corresponding values for 53 (EFLVRQYVLVDTFGV) [compound 53] are 2 and 104.
As for 167 (LRRKMMYMCYRNIEF) [compound 167], the “No. of subjects responding” value worked out at 6 and the Magnitude of response turned out to be 1697.
The corresponding values for “136 (VRSLAVDAQHAAKRV; ends and bridges not checked) [compound 136]” are 1 and 53.
149 (CDLPLVSSRLLPETS) [compound 149]: the “No. of subjects responding” value came to 1 and the Magnitude of response amounted to 123.
The corresponding values for 227 (PRLHCLVTTRSSTRE) [compound 227] are 1 and 1277.
The corresponding values for 166 (RVDMVRHRIKEHMLK) [compound 166] are 2 and 250.
The corresponding values for 69 (HTFKVRVYQKVLTFR) [compound 69] are 1 and 423.
For the substance 147 (AVAFLNYSSSSSAVS) [compound 147], the “No. of subjects responding” value worked out at 3 and the Magnitude of response is recorded as 2151.
The corresponding values for 18 (AEDSVFTSTRARSAT) [compound 18] are 1 and 490.
The corresponding values for “40 (KELRMCLSFDSNYCR; ends and bridges not checked; cysteine pairing not given here) [compound 40]” are 1 and 127.
The corresponding values for 84 (QILWTDGLARRTRDR) [compound 84] are 1 and 37.
For 162 (VCLILSFSIVTAALW) [compound 162], the “No. of subjects responding” value is 1 and the Magnitude of response was determined as 43.
For “134 (RLGTAATQIQKQTLY; ends and bridges not checked) [compound 134]”, the “No. of subjects responding” value was found to be 1 and the Magnitude of response amounted to 30.
The corresponding values for 87 (NIFLVGFYLLVPYLG) [compound 87] are 1 and 1633.
The corresponding values for 24 (ICVARLQAQPSSRHI) [compound 24] are 1 and 37.
The corresponding values for 25 (GVSSVTLLKIFSQVP) [compound 25] are 2 and 220.
137 (LEERDEWVRSLAVDA) [compound 137]: the “No. of subjects responding” value was 1 and the Magnitude of response is 47.
Turning to 226 (EKYMVLVSHNLDELA) [compound 226], the “No. of subjects responding” value was 1 and the Magnitude of response came out at 20.
As to 228 (LRYKWLIRKDRFIVR) [compound 228], the “No. of subjects responding” value is on record as 1 and the Magnitude of response is recorded as 3247.
211 (LFCGACVITRSLLLI) [compound 211]: the “No. of subjects responding” value amounted to 1 and the Magnitude of response is given as 487.
The corresponding values for 194 (TRGYVRYTLSPKARL) [compound 194] are 7 and 9337.
